Consider 14 molecules from the SangsterLogP compilation.

The term logP denotes the decadic logarithm of the partition coefficient of the neutral form, usually between octanol and water. Read a low logP as lower lipophilicity.

On to `CCCC(=NOCC)C1C(=O)CC2(CCC(C(C)(C)C)CC2)OC1=O` (centres undefined), for which the log partition coefficient (logP) is 5.3.

For `CCCC(=NOCC)C1C(=O)CC(c2ccccc2)(c2ccccc2)OC1=O` (centres undefined), the lipophilicity (logP) turned out to be 4.75.

On to `CCCC(=NOCC)C1C(=O)CC2(CCC(C)CC2)OC1=O` (centres undefined), for which the lipophilicity (logP) was 4.07.

Molecule `CCCC(=NOCC)C1C(=O)CC2(CCSCC2)OC1=O` (centres undefined) came in with a logP of 2.9.

Regarding `CCCC(=NOCC)C1C(=O)CC(C)(C2CC2)OC1=O` (centres undefined), the log partition coefficient (logP) is 3.28.

Consider `CCCC(=NOCC)C1C(=O)CC2(CCCC2)OC1=O` (centres undefined), for which the log partition coefficient (logP) was 3.22.

Turning to `CCCC(=NOCC)C1C(=O)CC2(CCCc3ccccc32)OC1=O` (centres undefined), the lipophilicity (logP) was 5.

`CCCC(=NOCC)C1C(=O)CC2(CCC(C)C2)OC1=O` (centres undefined) came in with a logP of 3.66.

`CCCC(=NOCC)C1C(=O)CC2(CCCCC2C)OC1=O` (centres undefined) returned a lipophilicity (logP) of 3.9.

In the case of `CCCC(=NOCC)C1C(=O)CC2(C=CCCC2)OC1=O` (centres undefined), the log partition coefficient (logP) was found to be 3.2.

In turn, `CCCC(=NOCC)C1C(=O)CC2(CC(C)CC(C)C2)OC1=O` (centres undefined) gave a log partition coefficient (logP) of 4.48.

The molecule `CCCC(=NOCC)C1C(=O)CC2(CCC(CC)CC2)OC1=O` (centres undefined) returned a logP of 4.48.

Turning to `CCCC(=NOCC)C1C(=O)CC2(CCCCC2)OC1=O` (centres undefined), the log partition coefficient (logP) was 3.62.

`CC=C(C)C1(C)CC(=O)C(C(CCC)=NOCC)C(=O)O1` (centres undefined) displayed a logP of 3.4.
